Measured values reported in ChEMBL document CHEMBL1687845, “Carotenoid-related alteration of cell membrane fluidity impacts Staphylococcus aureus susceptibility to host defense peptides” (2011).
Values after ≈ are worked out from the molar mass of the structure shown.

Columns and labels:
Staphylococcus aureus [1] = assay: Antibacterial activity against wild type methicillin-susceptible Staphylococcus aureus SA144 by Etest; assay type: functional
Staphylococcus aureus [2] = assay: Antibacterial activity against methicillin-susceptible Staphylococcus aureus SA145 harboring crtM deletion mutant by Etest; assay type: functional
Staphylococcus aureus [3] = assay: Antibacterial activity against methicillin-susceptible Staphylococcus aureus SA146 harboring deltacrtM-pDCerm by Etest; assay type: functional
Staphylococcus aureus [4] = assay: Antibacterial activity against methicillin-susceptible Staphylococcus aureus SA147 harboring deltacrtM-pDCerm::crtMN by Etest; assay type: functional
Staphylococcus aureus [5] = assay: Ratio of MIC for methicillin-susceptible Staphylococcus aureus SA147 harboring deltacrtM-pDCerm::crtMN to MIC for wild type methicillin-susceptible Staphylococcus aureus SA144; assay type: functional
Staphylococcus aureus [6] = assay: Antibacterial activity against wild type methicillin-susceptible Staphylococcus aureus SA144 assessed as bacterial survival at 1.25 ug/ml after 2 hrs; assay type: functional; details: SA144, 2 h
Staphylococcus aureus [7] = assay: Antibacterial activity against wild type methicillin-susceptible Staphylococcus aureus SA144 assessed as bacterial survival at 0.625 ug/ml after 2 hrs; assay type: functional; details: SA144, 2 h
Staphylococcus aureus [8] = assay: Antibacterial activity against methicillin-susceptible Staphylococcus aureus SA145 harboring crtM deletion mutant assessed as bacterial survival at 1.25 ug/ml after 2 hrs; assay type: functional; details: SA145, 2 h
Staphylococcus aureus [9] = assay: Antibacterial activity against methicillin-susceptible Staphylococcus aureus SA145 harboring crtM deletion mutant assessed as bacterial survival at 0.625 ug/ml after 2 hrs; assay type: functional; details: SA145, 2 h
Staphylococcus aureus [10] = assay: Antibacterial activity against methicillin-susceptible Staphylococcus aureus SA147 harboring deltacrtM-pDCerm::crtMN assessed as bacterial survival at 1.25 ug/ml after 2 hrs; assay type: functional; details: SA147, 2 h
Staphylococcus aureus [11] = assay: Antibacterial activity against methicillin-susceptible Staphylococcus aureus SA147 harboring deltacrtM-pDCerm::crtMN assessed as bacterial survival at 0.625 ug/ml after 2 hrs; assay type: functional; details: SA147, 2 h
Staphylococcus aureus [12] = assay: Antibacterial activity against wild type methicillin-susceptible Staphylococcus aureus SA144 assessed as bacterial survival at 5 ug/ml after 2 hrs; assay type: functional; details: SA144, 2 h
Staphylococcus aureus [13] = assay: Antibacterial activity against wild type methicillin-susceptible Staphylococcus aureus SA144 assessed as bacterial survival at 2.5 ug/ml after 2 hrs; assay type: functional; details: SA144, 2 h
Staphylococcus aureus [14] = assay: Antibacterial activity against methicillin-susceptible Staphylococcus aureus SA145 harboring crtM deletion mutant assessed as bacterial survival at 5 ug/ml after 2 hrs; assay type: functional; details: SA145, 2 h
Staphylococcus aureus [15] = assay: Antibacterial activity against methicillin-susceptible Staphylococcus aureus SA145 harboring crtM deletion mutant assessed as bacterial survival at 2.5 ug/ml after 2 hrs; assay type: functional; details: SA145, 2 h
Staphylococcus aureus [16] = assay: Antibacterial activity against methicillin-susceptible Staphylococcus aureus SA147 harboring deltacrtM-pDCerm::crtMN assessed as bacterial survival at 5 ug/ml after 2 hrs; assay type: functional; details: SA147, 2 h
Staphylococcus aureus [17] = assay: Antibacterial activity against methicillin-susceptible Staphylococcus aureus SA147 harboring deltacrtM-pDCerm::crtMN assessed as bacterial survival at 2.5 ug/ml after 2 hrs; assay type: functional; details: SA147, 2 h
Staphylococcus aureus [18] = assay: Antibacterial activity against wild type methicillin-susceptible Staphylococcus aureus SA144 assessed as bacterial survival at 80 ug/ml after 2 hrs; assay type: functional, organism-based
Staphylococcus aureus [19] = assay: Antibacterial activity against wild type methicillin-susceptible Staphylococcus aureus SA144 assessed as bacterial survival at 40 ug/ml after 2 hrs; assay type: functional, organism-based
Staphylococcus aureus [20] = assay: Antibacterial activity against methicillin-susceptible Staphylococcus aureus SA145 harboring crtM deletion mutant assessed as bacterial survival at 80 ug/ml after 2 hrs; assay type: functional, organism-based
Staphylococcus aureus [21] = assay: Antibacterial activity against methicillin-susceptible Staphylococcus aureus SA145 harboring crtM deletion mutant assessed as bacterial survival at 40 ug/ml after 2 hrs; assay type: functional, organism-based
Staphylococcus aureus [22] = assay: Antibacterial activity against methicillin-susceptible Staphylococcus aureus SA147 harboring deltacrtM-pDCerm::crtMN assessed as bacterial survival at 80 ug/ml after 2 hrs; assay type: functional, organism-based
Staphylococcus aureus [23] = assay: Antibacterial activity against methicillin-susceptible Staphylococcus aureus SA147 harboring deltacrtM-pDCerm::crtMN assessed as bacterial survival at 40 ug/ml after 2 hrs; assay type: functional, organism-based

CCCCCCCCCC(=O)N[C@@H](Cc1c[nH]c2ccccc12)C(=O)N[C@H](CC(N)=O)C(=O)N[C@@H](CC(=O)O)C(=O)N[C@@H]1C(=O)NCC(=O)N[C@@H](CCCN)C(=O)N[C@@H](CC(=O)O)C(=O)N[C@H](C)C(=O)N[C@@H](CC(=O)O)C(=O)NCC(=O)N[C@H](CO)C(=O)N[C@@H]([C@H](C)CC(=O)O)C(=O)N[C@@H](CC(=O)c2ccccc2N)C(=O)O[C@@H]1C showed an MIC (Staphylococcus aureus [1]) of 0.75 µg/mL (≈ 0.463 µM), an MIC (Staphylococcus aureus [2]) of 0.75 µg/mL (≈ 0.463 µM) and an MIC (Staphylococcus aureus [3]) of 0.75 µg/mL (≈ 0.463 µM). For the same compound, the MIC (Staphylococcus aureus [4]) was 1.5 µg/mL (≈ 0.926 µM), the Ratio (Staphylococcus aureus [5]) was 2 and the survival at 1.25 µg/mL (Staphylococcus aureus [6]) was 12%. It also gave a survival at 0.625 µg/mL (Staphylococcus aureus [7]) of 18%, a survival at 1.25 µg/mL (Staphylococcus aureus [8]) of 21% and a survival at 0.625 µg/mL (Staphylococcus aureus [9]) of 24%. For the same compound, the survival at 1.25 µg/mL (Staphylococcus aureus [10]) was 49% and the survival at 0.625 µg/mL (Staphylococcus aureus [11]) was 55%.

H-ALYKKFKKKLLKSLKRLG-OH was tested, and the survival at 5 µg/mL (Staphylococcus aureus [12]) was 11%, the survival at 2.5 µg/mL (Staphylococcus aureus [13]) was 23% and the survival at 5 µg/mL (Staphylococcus aureus [14]) was 13%. It also gave a survival at 2.5 µg/mL (Staphylococcus aureus [15]) of 18%, a survival at 5 µg/mL (Staphylococcus aureus [16]) of 23% and a survival at 2.5 µg/mL (Staphylococcus aureus [17]) of 55%.

POLYMYXIN B was tested, and the Survival (Staphylococcus aureus [18]) was 13%, the Survival (Staphylococcus aureus [19]) was 29% and the Survival (Staphylococcus aureus [20]) was 14%. It also gave a Survival (Staphylococcus aureus [21]) of 23%, a Survival (Staphylococcus aureus [22]) of 26% and a Survival (Staphylococcus aureus [23]) of 25%.
